From article PMC10958225, “Therapeutic potential of orally applied KB-R7943 in streptozotocin-induced neuropathy in rats” (Heliyon, 2024)

Legend:
[1] = tested on: STZ-treated rats with neuropathy; assay: Forced swim test (FST); type: in vivo, rat; conditions: 10 mg/kg p.o. once daily from day 28, test on day 41, 5-min test
Description: (§1) On the day of diabetic state induction, rats were deprived of food for 6 h (from 8 a.m. to 2 p.m.). A single i.p. injection was applied with 55 mg/kg STZ in the ice-cold citrate buffer (0.1 M pH 4.4). The observed polydipsia, polyuria, reduced thriving with lower body weight, and poor coating appearance indirectly indicated the development of diabetes. On day 28, after 6 h of fasting, blood glucose was measured with an Xpress Statstrip Glucometer (Nova Biomedical Corporation, Waltham, MA, USA) from the tail vein. A cut-off value of blood glucose >13 mmol/l was adopted. […] Controls were once i.p. injected with ice-cold citrate buffer 0.1 M pH 4.4 only.
(§2) Three animals per cage were housed for the experiment 2 (Fig. 3B). Rats were gently manipulated daily before undertaking the actual behavior tests. […] Body weight (BW), coat score (CS), CPT, R–S, and FT were evaluated on day 28th post-STZ, and after that, rats were distributed into the treatment groups as follows. • C-Veh – Controls, vehiculum treatment (n = 12) • NP-Veh – STZ-treated rats with neuropathy, vehiculum treatment (n = 12) • NP-KB-R7943 – 5 mg - STZ-treated rats, with neuropathy, KB-R7943 5 mg/kg treatment (n = 12) • NP-KB-R7943 – 10 mg – STZ-treated rats, with neuropathy, KB-R7943 10 mg/kg (n = 12) • NP-AMT – 10 mg - STZ-treated rats, with neuropathy, amitriptyline 10 mg/kg (n = 12). […]

[2] = tested on: STZ-treated rats with neuropathy; assay: 24-hour spontaneous physical activity; type: in vivo, rat; conditions: 10 mg/kg p.o. once daily from day 28, from day 41
Description: as §1, §2

[3] = tested on: STZ-treated rats with neuropathy; assay: Coat state score; type: in vivo, rat; conditions: chronic p.o. treatment from day 28, day 42
Description: as §1
as §2, with “3B).” for “3B). Rats were gently manipulated daily before undertaking the actual behavior tests.”
Coat state, water consumption, and body weight were evaluated weakly. […] Water consumption was measured per cage. […]

[4] = tested on: STZ-treated rats with neuropathy; assay: Cold plate test; type: in vivo, rat; conditions: 10 mg/kg p.o. once daily, end of the trial
Description: as §1
as §2, with “3B).” for “3B). Rats were gently manipulated daily before undertaking the actual behavior tests.”
This test was used for allodynia testing. […] Two independent observers recorded the time-to-paw lifting. […]

[5] = tested on: STZ-treated rats with neuropathy; assay: Paw pressure (Randall-Selitto) test; type: in vivo, rat; conditions: 10 mg/kg p.o. once daily, vs. NPveh
Description: as §1, §2

[6] = tested on: STZ-treated rats with neuropathy; assay: Formalin test (0.5% formalin); type: in vivo, rat
Description: as §1
(§3) Three animals per cage were housed for the experiment 2 (Fig. 3B). Rats were gently manipulated daily before undertaking the actual behavior tests. One week after adaptation, the Randl-Stellito (R–S) test, cold plate test (CPT), and formalin tests (FT) were performed at baseline. After that, the diabetes model was made with 48 rats. Twelve animals served as controls. Body weight (BW), coat score (CS), CPT, R–S, and FT were evaluated on day 28th post-STZ, and after that, rats were distributed into the treatment groups as follows. • C-Veh – Controls, vehiculum treatment (n = 12) • NP-Veh – STZ-treated rats with neuropathy, vehiculum treatment (n = 12) • NP-KB-R7943 – 5 mg - STZ-treated rats, with neuropathy, KB-R7943 5 mg/kg treatment (n = 12) • NP-KB-R7943 – 10 mg – STZ-treated rats, with neuropathy, KB-R7943 10 mg/kg (n = 12) • NP-AMT – 10 mg - STZ-treated rats, with neuropathy, amitriptyline 10 mg/kg (n = 12).
(§4) OraPlus was used as a vehiculum for gavage (16 gauge feeding tube 10 ml/kg) in all rats. KB-R7943 in two doses (5 or 10 mg/kg) or amitriptyline 10 mg/kg was applied once daily until day 49. Behavior tests were performed […] after the oral gavage of the corresponding day, in the afternoon, starting from 2 p.m. […] On day 41, an FST was performed, and at 2 p.m., rats were placed individually for 24 h to assess spontaneous physical activity. After that, on day 42, the same battery of the tests as on day 28 were reassessed.
The formalin test was performed 1 h after the R–S test to decrease the interaction with the mechanical stimulus from the previous test. For the same reason, the left hind paws were injected. A needle (U-100 Insulin Syringe, Beckton and Dickinson, Dublin, Ireland) was used. A low-dose intraplantar injection of formalin 50 mcl 0.5% was done, and rats were placed in individual transparent cases for observation. Two independent observers measured the time spent licking or biting the injected paw, and the first (0–5 min) and the second post-injection phase (20–30 min) were reported in sec.

[7] = tested on: STZ-treated rats with neuropathy; assay: Mortality and adverse effects during chronic oral treatment; type: in vivo; conditions: p.o. once daily day 28 to 49
Description: as §3
as §4, with “After that, on day 42, the same battery of the tests as on day 28 were reassessed.” left out

In the case of `CN(C)CCC=C1c2ccccc2CCc2ccccc21` [amitriptyline], the “immobility time in FST” value [1] is reported as 137.50 ± 31.94 s, the “24-h spontaneous physical activity” value [2] is reported as 1678.33 ± 282.00 beam breaks and the “effect on coat score” value [3] is reported as “ameliorated”. For the same compound, the “effect on cold allodynia (cold plate test)” value [4] was “demonstrated a reversal effect”, the “effect on mechanical allodynia (R–S test)” value [5] was “partly reversed” and the “effect on formalin test first phase (0–5 min)” value ([6]; 10 mg/kg p.o. once daily, vs. NP-Veh) was “attenuated”. The “effect on formalin test second phase (20–30 min)” value ([6]; amitriptyline 10 mg/kg, KB-R7943 5 and 10 mg/kg p.o. once daily, vs. NPveh, dose-dependent) was “attenuated” and the mortality during treatment [7] was “No one rat died”.
